Measured values reported in patent publication US6620821B2, “HMG-CoA reductase inhibitors and method” (Bristol-Myers Squibb Company, priority 2000, dated 2003).

Work on `CC(C)c1nc2c(c(-c3ccc(F)cc3)c1CC[C@@H](O)C[C@@H](O)CC(=O)[O-])CCCc1ccccc1-2.[Na+]` yielded a melting point of 253 to 254 °C.
